According to PubChem BioAssay AID192 (DTP/NCI, 2004):
Values joined by “and” are separate entries in the source; they are usually repeats but may differ in a detail not shown here. Identical values can stand only once. Toxic doses and inconclusive results are not listed.

Tested on: BDF1 mice, B16 melanoma ip, median survival T/C
Assay: NCI In Vivo Anticancer Drug Screen. Data for tumor model B16 Melanoma (intraperitoneal) in B6D2F1 (BDF1) mice
Conditions: endpoint: median survival time, higher = longer survival
Method in brief: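 Survival or tumor size is measured after treatment of tumor-bearing mice and normalised to the vehicle-treated control group.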

[1] = dose: 1.0 mg/kg/injection, schedule: Q01DX009 (ip), vehicle: saline
[2] = dose: 2.0 mg/kg/injection, schedule: Q01DX009 (ip), vehicle: saline
[3] = dose: 12.5 mg/kg/injection, schedule: Q01DX009 (ip), vehicle: Klucel (hydroxypropylcellulose) (HPC)
[4] = dose: 25.0 mg/kg/injection, schedule: Q01DX009 (ip), vehicle: Klucel (hydroxypropylcellulose) (HPC)
[5] = dose: 200.0 mg/kg/injection, schedule: Q01DX009 (ip), vehicle: Klucel (hydroxypropylcellulose) (HPC)
[6] = dose: 100.0 mg/kg/injection, schedule: Q01DX009 (ip), vehicle: Klucel (hydroxypropylcellulose) (HPC)
[7] = dose: 12.5 mg/kg/injection, schedule: Q01DX009 (ip), vehicle: other
[8] = dose: 25.0 mg/kg/injection, schedule: Q01DX009 (ip), vehicle: other
[9] = dose: 25.0 mg/kg/injection, schedule: Q01DX009 (ip), vehicle: saline with Tween-80
[10] = dose: 50.0 mg/kg/injection, schedule: Q01DX009 (ip), vehicle: saline with Tween-80
[11] = dose: 100.0 mg/kg/injection, schedule: Q01DX009 (ip), vehicle: saline with Tween-80
[12] = dose: 25.0 mg/kg/injection, schedule: Q01DX009 (ip), vehicle: saline
[13] = dose: 50.0 mg/kg/injection, schedule: Q01DX009 (ip), vehicle: saline
[14] = dose: 100.0 mg/kg/injection, schedule: Q01DX009 (ip), vehicle: saline
[15] = dose: 200.0 mg/kg/injection, schedule: Q01DX009 (ip), vehicle: saline
[16] = dose: 6.25 mg/kg/injection, schedule: Q01DX009 (ip), vehicle: saline
[17] = dose: 12.5 mg/kg/injection, schedule: Q01DX009 (ip), vehicle: saline
[18] = dose: 6.25 mg/kg/injection, schedule: Q01DX009 (ip), vehicle: Klucel (hydroxypropylcellulose) (HPC)
[19] = dose: 50.0 mg/kg/injection, schedule: Q01DX009 (ip), vehicle: Klucel (hydroxypropylcellulose) (HPC)
[20] = dose: 200.0 mg/kg/injection, schedule: Q01DX009 (ip), vehicle: saline with Tween-80
[21] = dose: 400.0 mg/kg/injection, schedule: Q01DX009 (ip), vehicle: saline with Tween-80
[22] = dose: 12.5 mg/kg/injection, schedule: Q01DX009 (ip), vehicle: saline sonified
[23] = dose: 25.0 mg/kg/injection, schedule: Q01DX009 (ip), vehicle: saline sonified

For `CO[C@H]1C[C@H](O[C@H]2CC[C@]3(C=O)[C@H]4CC[C@]5(C)[C@@H](C6=CC(=O)OC6)CC[C@]5(O)[C@@H]4CC[C@]3(O)C2)O[C@H](C)[C@H]1O[C@@H]1O[C@H](CO)[C@@H](O)[C@H](O)[C@H]1O`, the T/C (dose: 0.25 mg/kg/injection, schedule: Q01DX009 (ip), vehicle: saline) was 105 % of control, the T/C (dose: 0.25 mg/kg/injection, schedule: Q04DX003 (ip), vehicle: saline) was 100 % of control and the T/C (dose: 0.5 mg/kg/injection, schedule: Q01DX009 (ip), vehicle: saline) was 100 % of control. The T/C (dose: 0.5 mg/kg/injection, schedule: Q04DX003 (ip), vehicle: saline) was 102 % of control, the T/C [1] was 100 % of control and the T/C (dose: 1.0 mg/kg/injection, schedule: Q04DX003 (ip), vehicle: saline) was 105 % of control. For the same compound, the T/C [2] was 94 % of control.
For `CN(C)N=Nc1ccnc2c(I)cccc12`, the T/C (dose: 25.2 mg/kg/injection, schedule: Q01DX008 (ip), vehicle: DMSO) was 92 % of control, the T/C (dose: 42.0 mg/kg/injection, schedule: Q01DX008 (ip), vehicle: DMSO) was 97 % of control and the T/C (dose: 70.0 mg/kg/injection, schedule: Q01DX008 (ip), vehicle: DMSO) was 99 % of control. For the same compound, the T/C (dose: 116.7 mg/kg/injection, schedule: Q01DX008 (ip), vehicle: DMSO) was 92 % of control.
With `CCCCCCCCCCC(O)CN1CCN(c2ccc(C)cc2)CC1` (configuration not stated) the T/C [3] was 92 % of control, the T/C [4] was 105 % of control and the T/C [5] was 86 % of control.
With `CCOc1ccccc1NC(=O)CC(C)=O` the T/C [6] was 100 % of control and the T/C [5] was 97 % of control.
`CCCC1(CCC)c2ccccc2C(CCl)(OCC)c2ccccc21` was tested, and the T/C [7] was 92 % of control, the T/C [8] was 102 % of control and the T/C (dose: 50.0 mg/kg/injection, schedule: Q01DX009 (ip), vehicle: other) was 100 % of control. The T/C (dose: 75.0 mg/kg/injection, schedule: Q01DX009 (ip), vehicle: other) was 86 % of control and the T/C (dose: 300.0 mg/kg/injection, schedule: Q01DX009 (ip), vehicle: other) was 86 % of control.
For `O=C(COc1ccc(Cl)cc1Cl)Nc1ccc(F)cc1`, the T/C [9] was 110 % of control, the T/C [10] was 91 % of control and the T/C [11] was 86 % of control.
In the case of `C1CCNCC1`, the T/C [12] is reported as 100 % of control, the T/C [13] is reported as 102 % of control and the T/C [14] is reported as 107 % of control. The T/C [15] was 102 % of control.
`CC(O)c1ccc[n+](CCc2cn(C)c3ccccc23)c1` (configuration not stated) was tested, and the T/C [16] was 107 % of control, the T/C [17] was 113 % of control and the T/C [12] was 104 % of control.
For `O=C(Nc1ccc(Cl)c(Cl)c1)Nc1c(Oc2ccc(Cl)c(Cl)c2)ccc(Cl)c1S(=O)(=O)O`, the T/C (dose: 3.12 mg/kg/injection, schedule: Q01DX009 (ip), vehicle: Klucel (hydroxypropylcellulose) (HPC)) was 119 % of control, the T/C [18] was 105 % of control and the T/C (dose: 6.25 mg/kg/injection, schedule: Q01DX009 (ip), vehicle: saline with Tween-80) was 122 % of control. For the same compound, the T/C [3] was 105 % of control, the T/C [4] was 116 % of control and the T/C [9] was 122 % of control. For the same compound, the T/C [19] was 112 % of control and the T/C [6] was 123 % of control.
For `COc1cc2c(cc1OC)C1CCN3C(=O)CCC3N1CC2` (configuration not stated), the T/C [11] was 94 % of control, the T/C [20] was 91 % of control and the T/C [21] was 105 % of control.
With `NNC(=O)c1ccccn1` the T/C (dose: 25.0 mg/kg/injection, schedule: Q01DX009 (ip), vehicle: water) was 106 % of control and the T/C (dose: 50.0 mg/kg/injection, schedule: Q01DX009 (ip), vehicle: water) was 113 % of control.
With `CC1C2CCC(C2)C1C(=O)O` (configuration not stated) the T/C (dose: 100.0 mg/kg/injection, schedule: Q04DX003 (ip), vehicle: other) was 102 % of control, the T/C (dose: 200.0 mg/kg/injection, schedule: Q04DX003 (ip), vehicle: other) was 102 % of control and the T/C (dose: 400.0 mg/kg/injection, schedule: Q04DX003 (ip), vehicle: other) was 89 % of control.
For `CCOC(=O)/C=C/C(=O)NCC(N)C(=O)O` (configuration not stated), the T/C (dose: 6.25 mg/kg/injection, schedule: Q01DX009 (ip), vehicle: distilled water + Tween-80) was 96 % of control, the T/C (dose: 12.5 mg/kg/injection, schedule: Q01DX009 (ip), vehicle: distilled water + Tween-80) was 88 % of control and the T/C (dose: 25.0 mg/kg/injection, schedule: Q01DX009 (ip), vehicle: distilled water + Tween-80) was 104 % of control. For the same compound, the T/C (dose: 50.0 mg/kg/injection, schedule: Q01DX009 (ip), vehicle: distilled water + Tween-80) was 88 % of control and the T/C (dose: 100.0 mg/kg/injection, schedule: Q01DX009 (ip), vehicle: distilled water + Tween-80) was 98 % of control.
`CC(N)C(=O)NC(C(=O)O)C(C)O` (configuration not stated) was tested, and the T/C [12] was 92 % of control, the T/C [13] was 100 % of control and the T/C [14] was 97 % of control. For the same compound, the T/C [15] was 102 % of control and the T/C (dose: 400.0 mg/kg/injection, schedule: Q01DX009 (ip), vehicle: saline) was 105 % of control.
With `CC1(C)N=C(N)N=C(N)N1c1ccc(Cl)cc1Cl` the T/C [3] was 108 % of control, the T/C [4] was 111 % of control and the T/C [19] was 123 % of control.
`COc1cc(NS(C)(=O)=O)ccc1Nc1c2cccc(C)c2nc2c(C)cccc12` was tested, and the T/C (dose: 0.8 mg/kg/injection, schedule: Q01DX009 (ip), vehicle: other) was 115 % of control, the T/C (dose: 1.6 mg/kg/injection, schedule: Q01DX009 (ip), vehicle: other) was 115 % of control and the T/C (dose: 6.25 mg/kg/injection, schedule: Q01DX009 (ip), vehicle: saline sonified) was 158 % of control. The T/C [7] was 189 % of control, the T/C [22] was 204 % of control and the T/C [8] was 208 % of control. For the same compound, the T/C [23] was 183 % of control, the T/C (dose: 25.0 mg/kg/injection, schedule: Q04DX003 (ip), vehicle: other) was 166 % of control and the T/C (dose: 50.0 mg/kg/injection, schedule: Q01DX001 (ip), vehicle: saline sonified) was 169 % of control. For the same compound, the T/C (dose: 50.0 mg/kg/injection, schedule: Q04DX003 (ip), vehicle: other) was 156 % of control, the T/C (dose: 100.0 mg/kg/injection, schedule: Q01DX001 (ip), vehicle: saline sonified) was 165 % of control and the T/C (dose: 200.0 mg/kg/injection, schedule: Q01DX001 (ip), vehicle: saline sonified) was 152 % of control.
In the case of `ClCCN(CCCl)c1ccc(/C=C/c2ccccc2)cc1`, the T/C [18] is reported as 98 % of control, the T/C [3] is reported as 96 % of control and the T/C [4] is reported as 96 % of control. The T/C [19] was 90 % of control and the T/C [6] was 101 % of control.
`Cc1cc2nc3ccc(N)cc3oc-2cc1=[N+](C)C` was tested, and the T/C [18] was 105 % of control, the T/C [16] was 123 % of control and the T/C [3] was 110 % of control. The T/C [17] was 119 % of control and the T/C [4] was 117 % of control.
`O=C(CC(NC(=O)OCc1ccccc1)C(=O)O)OCc1ccccc1` (configuration not stated) was tested, and the T/C [9] was 93 % of control, the T/C [10] was 104 % of control and the T/C [6] was 102 % of control. The T/C [11] was 102 % of control, the T/C [5] was 106 % of control and the T/C [20] was 87 % of control.
With `O=C(O)CC(NCc1ccccc1)C(=O)O` (configuration not stated) the T/C [11] was 97 % of control, the T/C [20] was 102 % of control and the T/C [21] was 100 % of control.
`CN(C)CCCN1c2ccccc2Sc2ccc(Cl)cc21` was tested, and the T/C [1] was 101 % of control, the T/C [2] was 111 % of control and 93 % of control and the T/C (dose: 4.0 mg/kg/injection, schedule: Q01DX009 (ip), vehicle: saline) was 110 % of control and 100 % of control. For the same compound, the T/C (dose: 8.0 mg/kg/injection, schedule: Q01DX009 (ip), vehicle: saline) was 92 % of control and 102 % of control, the T/C (dose: 12.5 mg/kg/injection, schedule: Q01DX009 (ip), vehicle: alkali diluted with saline) was 100 % of control and the T/C [22] was 97 % of control. The T/C (dose: 16.0 mg/kg/injection, schedule: Q01DX009 (ip), vehicle: saline) was 94 % of control, the T/C (dose: 25.0 mg/kg/injection, schedule: Q01DX009 (ip), vehicle: alkali diluted with saline) was 92 % of control and the T/C [23] was 90 % of control. For the same compound, the T/C (dose: 32.0 mg/kg/injection, schedule: Q01DX009 (ip), vehicle: saline) was 92 % of control and the T/C (dose: 64.0 mg/kg/injection, schedule: Q01DX009 (ip), vehicle: saline) was 87 % of control.
